Reference: US20250115590A1, “MATRIX METALLOPROTEINASE (MMP) INHIBITORS AND METHODS OF USE THEREOF” (Foresee Pharmaceuticals USA, Inc., priority 2018, published 2025)
pIC50: −log10 of the molar value. Like-named read-outs stand apart in the source and are kept apart here.

Columns and labels:
Assay type in all cases: biochemical
[1] = target: recombinant human MMP-12 catalytic domain (Homo sapiens (Human), UniProt P39900); experiment: MMP-12 inhibitory assay (fluorogenic substrate cleavage)
Protocol: (§1) The inhibitory effect of compounds on the rate of cleaving fluorogenic MMP substrate (Enzo, BML-P128) by recombinant human MMP-12 catalytic domain (Enzo, BML-SE138) was carried out by methods known in the art. Briefly, to each well of a 96-well black opaque plate, all the reagents were sequentially added by pipetting, and the final reaction contained 4 nM of recombinant human MMP-12 catalytic domain, […] of fluorogenic MMP substrate, and various concentrations (0.15 nM to 10,000 nM) of tested compound dilutions in HEPES buffer (pH 7.5) containing 10 mM of CaCl2, 0.01% Brij® 35 (polyoxyethylene (23) lauryl ether), and 0.1 mg/ml of BSA.
(§2) The enzyme and compounds were pre-incubated on a shaker to mix in wells. After an hour of mixing, fluorogenic substrate was added to each well. Reaction without enzyme was used as a blank control in the plate. The plate was then fed into a plate reader to measure fluorescence intensity at Excitation/Emission wavelengths of 340 nm/440 nm every 10 mins for at least 1 hour at 37° C. The IC50 of each compound in MMP-12 inhibition was determined by using a readout obtained at time point 30 minutes.

recombinant human MMP-3 = recombinant human MMP-3 (Homo sapiens (Human), UniProt P08254); experiment: MMP selectivity assay, MMP-3; settings: Table 2 selectivity profile; read-out: MMP-3 Activity (IC50 class)
Chain of recombinant human MMP-3 (P08254 100-477): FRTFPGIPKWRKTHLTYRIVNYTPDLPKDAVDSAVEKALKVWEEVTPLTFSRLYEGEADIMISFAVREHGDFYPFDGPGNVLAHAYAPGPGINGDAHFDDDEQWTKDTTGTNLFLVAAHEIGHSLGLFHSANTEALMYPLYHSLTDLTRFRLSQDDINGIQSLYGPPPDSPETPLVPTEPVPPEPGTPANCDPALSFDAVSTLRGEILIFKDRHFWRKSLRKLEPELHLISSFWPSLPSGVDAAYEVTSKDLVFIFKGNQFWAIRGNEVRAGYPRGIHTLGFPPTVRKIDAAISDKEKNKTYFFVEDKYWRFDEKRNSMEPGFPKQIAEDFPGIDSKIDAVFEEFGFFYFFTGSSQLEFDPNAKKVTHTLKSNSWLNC
Protocol: as §1, §2
(§3) The MMP selectivity assay was performed by using other recombinant human MMPs, including MMP-1, MMP-2, MMP-3, MMP-7, MMP-8, MMP-9, MMP-10, MMP-13, and MMP-14. The IC50 of the compounds for the other recombinant human MMPs was determined as described above in Example 1, and are shown in Table 2.

recombinant human MMP-9 = recombinant human MMP-9 (Homo sapiens (Human), UniProt P14780); experiment: MMP selectivity assay, MMP-9; settings: Table 2 selectivity profile; read-out: MMP-9 Activity (IC50 class)
Chain of recombinant human MMP-9 (P14780 94-707): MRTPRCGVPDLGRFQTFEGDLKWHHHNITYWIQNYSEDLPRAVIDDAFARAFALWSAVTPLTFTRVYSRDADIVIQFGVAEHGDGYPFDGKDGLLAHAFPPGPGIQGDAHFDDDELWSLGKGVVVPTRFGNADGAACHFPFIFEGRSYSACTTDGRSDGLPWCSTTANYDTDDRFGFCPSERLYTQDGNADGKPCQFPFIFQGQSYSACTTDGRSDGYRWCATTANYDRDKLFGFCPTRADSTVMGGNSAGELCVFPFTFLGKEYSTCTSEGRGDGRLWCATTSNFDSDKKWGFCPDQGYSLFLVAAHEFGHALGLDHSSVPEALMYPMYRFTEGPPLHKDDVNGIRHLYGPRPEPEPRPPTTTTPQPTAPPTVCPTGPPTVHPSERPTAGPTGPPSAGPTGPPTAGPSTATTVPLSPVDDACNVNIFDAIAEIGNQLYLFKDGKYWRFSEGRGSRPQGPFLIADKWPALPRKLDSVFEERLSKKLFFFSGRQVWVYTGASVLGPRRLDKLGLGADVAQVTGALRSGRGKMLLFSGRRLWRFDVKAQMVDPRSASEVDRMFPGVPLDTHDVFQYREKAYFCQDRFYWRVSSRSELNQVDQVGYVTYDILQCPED
Protocol: as §1, §2, §3

recombinant human MMP-10 = recombinant human MMP-10 (Homo sapiens (Human), UniProt P09238); experiment: MMP selectivity assay, MMP-10; settings: Table 2 selectivity profile; read-out: MMP-10 Activity (IC50 class)
Chain of recombinant human MMP-10 (P09238 99-476): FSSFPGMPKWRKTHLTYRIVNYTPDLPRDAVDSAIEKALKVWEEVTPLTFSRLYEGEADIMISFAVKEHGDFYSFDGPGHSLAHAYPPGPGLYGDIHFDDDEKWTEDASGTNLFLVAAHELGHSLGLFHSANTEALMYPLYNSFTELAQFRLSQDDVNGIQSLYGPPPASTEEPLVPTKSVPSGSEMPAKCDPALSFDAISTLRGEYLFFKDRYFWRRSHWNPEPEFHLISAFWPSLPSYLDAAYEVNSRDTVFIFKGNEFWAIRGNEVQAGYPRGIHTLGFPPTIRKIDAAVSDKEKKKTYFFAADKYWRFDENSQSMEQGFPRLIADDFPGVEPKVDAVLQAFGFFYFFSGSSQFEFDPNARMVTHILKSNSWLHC
Protocol: as §1, §2, §3

recombinant human MMP-14 = recombinant human MMP-14 (Homo sapiens (Human), UniProt P50281); experiment: MMP selectivity assay, MMP-14; settings: Table 2 selectivity profile; read-out: MMP-14 Activity (IC50 class)
Protocol: as §1, §2, §3

recombinant human MMP-2 = recombinant human MMP-2 (Homo sapiens (Human), UniProt P08253); experiment: MMP selectivity assay, MMP-2; settings: Table 2 selectivity profile; read-out: MMP-2 Activity (IC50 class)
Chain of recombinant human MMP-2 (P08253 110-660): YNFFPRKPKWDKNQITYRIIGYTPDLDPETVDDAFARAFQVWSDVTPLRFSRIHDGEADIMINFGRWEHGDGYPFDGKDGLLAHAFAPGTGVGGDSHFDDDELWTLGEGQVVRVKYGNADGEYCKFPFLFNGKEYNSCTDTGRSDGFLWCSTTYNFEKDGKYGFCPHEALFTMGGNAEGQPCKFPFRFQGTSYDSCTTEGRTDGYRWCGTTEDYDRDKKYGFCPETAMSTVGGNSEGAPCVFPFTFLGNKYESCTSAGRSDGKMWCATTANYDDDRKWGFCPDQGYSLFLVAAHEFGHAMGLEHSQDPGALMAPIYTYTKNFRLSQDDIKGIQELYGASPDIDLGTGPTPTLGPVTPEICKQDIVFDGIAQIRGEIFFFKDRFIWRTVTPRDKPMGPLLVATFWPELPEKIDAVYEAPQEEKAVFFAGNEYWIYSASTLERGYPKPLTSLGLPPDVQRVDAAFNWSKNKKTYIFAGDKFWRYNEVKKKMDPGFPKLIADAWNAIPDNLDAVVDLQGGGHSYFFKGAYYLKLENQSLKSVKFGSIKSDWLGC
Protocol: as §1, §2, §3

recombinant human MMP-13 = recombinant human MMP-13 (Homo sapiens (Human), UniProt P45452); experiment: MMP selectivity assay, MMP-13; settings: Table 2 selectivity profile; read-out: MMP-13 Activity (IC50 class)
Protocol: as §1, §2, §3

recombinant human MMP-8 = recombinant human MMP-8 (Homo sapiens (Human), UniProt P22894); experiment: MMP selectivity assay, MMP-8; settings: Table 2 selectivity profile; read-out: MMP-8 Activity (IC50 class)
Chain of recombinant human MMP-8 (P22894 101-467): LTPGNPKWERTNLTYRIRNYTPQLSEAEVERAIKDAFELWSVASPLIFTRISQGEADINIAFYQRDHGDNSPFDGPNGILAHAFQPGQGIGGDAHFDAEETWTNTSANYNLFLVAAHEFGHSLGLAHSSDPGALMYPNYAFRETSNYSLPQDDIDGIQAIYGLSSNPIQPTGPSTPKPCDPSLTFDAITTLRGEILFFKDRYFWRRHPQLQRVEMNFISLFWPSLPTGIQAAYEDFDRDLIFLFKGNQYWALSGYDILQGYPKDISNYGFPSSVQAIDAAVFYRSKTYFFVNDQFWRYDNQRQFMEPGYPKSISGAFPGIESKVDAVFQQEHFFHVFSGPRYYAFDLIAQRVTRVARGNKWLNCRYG
Protocol: as §1, §2, §3

recombinant human MMP-7 = recombinant human MMP-7 (Homo sapiens (Human), UniProt P09237); experiment: MMP selectivity assay, MMP-7; settings: Table 2 selectivity profile; read-out: MMP-7 Activity (IC50 class)
Chain of recombinant human MMP-7 (P09237 95-267): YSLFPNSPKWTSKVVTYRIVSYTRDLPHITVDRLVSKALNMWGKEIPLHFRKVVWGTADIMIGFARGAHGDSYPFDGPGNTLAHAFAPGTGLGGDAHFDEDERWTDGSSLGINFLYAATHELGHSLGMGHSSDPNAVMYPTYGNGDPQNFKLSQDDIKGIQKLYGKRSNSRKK
Protocol: as §1
as §2, with “Reaction without enzyme was used as a blank control in the plate.” left out
as §3

[2] = Table 2 selectivity profile, read-out: MMP-12 Activity (IC50 class)
[3] = readout at 30 minutes, 37° C., pH 7.5, Table 1, read-out: MMP-12 IC50

Chain of recombinant human MMP-12 catalytic domain (P39900 106-268): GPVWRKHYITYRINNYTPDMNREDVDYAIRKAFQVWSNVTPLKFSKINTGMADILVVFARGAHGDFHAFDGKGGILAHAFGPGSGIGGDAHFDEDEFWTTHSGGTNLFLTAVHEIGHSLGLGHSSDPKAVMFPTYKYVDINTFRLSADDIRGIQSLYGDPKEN

Compound	pIC50 [1, 2]	pIC50 [1, 3]	pIC50 (recombinant human MMP-9)	pIC50 (recombinant human MMP-10)	pIC50 (recombinant human MMP-2)	other results
Cc1cc(COc2ccc(Sc3ncoc3C3NC(=O)NC3=O)cc2)ccn1 (stereo not shown) [OC-7]	> 8.00	> 8.00	< 6.00	< 6.00	–	pIC50 (recombinant human MMP-3): < 6.00
Cc1cc(COc2ccc(Sc3ocnc3C3NC(=O)NC3=O)cc2)ccn1 (stereo not shown) [OC-11]	–	< 6.00	–	–	–	–
Cc1cc(COc2ccc(Sc3cnn(C)c3C3NC(=O)NC3=O)cc2)ccn1 (stereo not shown) [OC-12]	> 8.00	> 8.00	< 6.00	< 6.00	–	pIC50 (recombinant human MMP-3): < 6.00; pIC50 (recombinant human MMP-14): < 6.00
Cc1cc(COc2ccc(Sc3ncn(C)c3C3NC(=O)NC3=O)cc2)ccn1 (stereo not shown) [OC-13]	> 8.00	> 8.00	< 6.00	< 6.00	–	pIC50 (recombinant human MMP-3): < 6.00
O=C1NC(=O)C(c2cnccc2Sc2ccc(OCc3cccc(CO)c3)cc2)N1 (stereo not shown) [PC-8]	> 8.00	> 8.00	–	–	< 6.00	pIC50 (recombinant human MMP-3): < 6.00; pIC50 (recombinant human MMP-13): < 6.00
O=C1NC(=O)C(c2cnccc2Sc2ccc(OCc3cccc(O)c3)cc2)N1 (stereo not shown) [PC-10]	> 8.00	> 8.00	< 6.00	–	< 6.00	pIC50 (recombinant human MMP-3): < 6.00; pIC50 (recombinant human MMP-8): < 6.00; pIC50 (recombinant human MMP-13): < 6.00
O=C1NC(=O)C(c2ccncc2Sc2ccc(OCc3ccccc3CO)cc2)N1 (stereo not shown) [PC-12]	> 8.00	> 8.00	< 6.00	< 6.00	< 6.00	pIC50 (recombinant human MMP-8): < 6.00
O=C1NC(=O)C(c2ccncc2Sc2ccc(OCc3cccc(CO)c3)cc2)N1 (stereo not shown) [PC-13]	> 8.00	> 8.00	< 6.00	< 6.00	< 6.00	pIC50 (recombinant human MMP-8): < 6.00; pIC50 (recombinant human MMP-13): < 6.00
O=C1NC(=O)C(c2ccncc2Sc2ccc(OCc3cccc(O)c3)cc2)N1 (stereo not shown) [PC-15]	–	> 8.00	–	–	–	–
Cc1cc(COc2ccc(Sc3cnccc3C3NC(=O)NC3=O)cc2)ccn1 (stereo not shown) [PC-18]	–	> 8.00	–	–	–	–
O=C1NC(=O)C(c2cnccc2Sc2ccc(OCc3ccnc(C(=O)O)c3)cc2)N1 (stereo not shown) [PC-20]	–	< 6.00	–	–	–	–
O=C1NC(=O)C(c2cnccc2Sc2ccc(OCc3cncc(C(=O)O)c3)cc2)N1 (stereo not shown) [PC-21]	–	< 6.00	–	–	–	–
CCC1(c2cnccc2Sc2ccc(OCc3cccc(C)c3)cc2)NC(=O)NC1=O (stereo not shown) [PC-22]	> 8.00	> 8.00	< 6.00	< 6.00	< 6.00	pIC50 (recombinant human MMP-8): < 6.00; pIC50 (recombinant human MMP-14): < 6.00
O=C1NC(=O)C(c2ccncc2Sc2ccc(OCc3cncc(C(=O)O)c3)cc2)N1 (stereo not shown) [PC-24]	–	< 6.00	–	–	–	–
NC(=O)c1cccc(COc2ccc(Sc3ccncc3C3NC(=O)NC3=O)cc2)c1 (stereo not shown) [PC-28]	> 8.00	> 8.00	< 6.00	< 6.00	< 6.00	pIC50 (recombinant human MMP-3): < 6.00; pIC50 (recombinant human MMP-14): < 6.00
NC(=O)c1ccncc1COc1ccc(Sc2ccncc2C2NC(=O)NC2=O)cc1 (stereo not shown) [PC-38]	–	< 6.00	–	–	–	–

Compound	pIC50 [1, 2]	pIC50 [1, 3]	pIC50 (recombinant human MMP-9)	pIC50 (recombinant human MMP-10)	pIC50 (recombinant human MMP-2)	other results
O=C1NC(=O)C(c2cnccc2Sc2ccc(OCc3ccnc(CO)c3)cc2)N1 (stereo not shown) [PC-40]	–	> 8.00	–	–	–	–
Cc1cccc(OCc2ccc(Sc3ccncc3C3NC(=O)NC3=O)cc2)c1 (stereo not shown) [PC-43]	–	< 6.00	–	–	–	–
Cc1cc(COc2ccc(Sc3ccncc3C3(C)C(=O)N(C)C(=O)N3C)cc2)ccn1 (stereo not shown) [PC-46]	–	< 6.00	–	–	–	–
O=C1NC(=O)C(c2ccncc2Sc2ccc(OCc3cncc(CO)c3)cc2)N1 (stereo not shown) [PC-47]	–	< 6.00	–	–	–	–
Cc1cc(COc2ccc(Sc3ccncc3C3NC(=O)NC3=O)cc2C)ccn1 (stereo not shown) [PC-48]	> 8.00	> 8.00	< 6.00	< 6.00	< 6.00	pIC50 (recombinant human MMP-3): < 6.00; pIC50 (recombinant human MMP-8): < 6.00
Cc1cc(COc2ccc(Sc3ccncc3C3NC(=O)NC3=O)c(F)c2)ccn1 (stereo not shown) [PC-50]	> 8.00	> 8.00	< 6.00	< 6.00	–	pIC50 (recombinant human MMP-14): < 6.00
Cc1cc(COc2ccc(Sc3ccncc3C3NC(=O)NC3=O)c(Cl)c2)ccn1 (stereo not shown) [PC-51]	> 8.00	> 8.00	< 6.00	< 6.00	< 6.00	pIC50 (recombinant human MMP-3): < 6.00; pIC50 (recombinant human MMP-7): < 6.00; pIC50 (recombinant human MMP-14): < 6.00
Cc1cc(COc2ccc(Sc3ccncc3C3C(=O)N(C)C(=O)N3C)cc2)ccn1 (stereo not shown) [PC-54]	–	< 6.00	–	–	–	–
NC(=O)c1cc(COc2ccc(Sc3cnccc3C3NC(=O)NC3=O)cc2)ccn1 (stereo not shown) [PC-59]	–	6.00 to 7.00	–	–	–	–
CCC1(c2cnccc2Sc2ccc(OCc3ccnc(C)c3)cc2)NC(=O)NC1=O (stereo not shown) [PC-63]	–	> 8.00	–	–	–	–
CCC1(c2ccncc2Sc2ccc(OCc3ccnc(C)c3)cc2)NC(=O)NC1=O (stereo not shown) [PC-64]	–	> 8.00	–	–	–	–
O=C1NC(=O)C(c2sccc2Sc2ccc(OCc3cccc(CO)c3)cc2)N1 (stereo not shown) [TC4]	> 8.00	> 8.00	< 6.00	< 6.00	< 6.00	pIC50 (recombinant human MMP-13): < 6.00; pIC50 (recombinant human MMP-14): < 6.00
O=C1NC(=O)C(c2sccc2Sc2ccc(OCc3ccccc3CO)cc2)N1 (stereo not shown) [TC5]	> 8.00	> 8.00	< 6.00	< 6.00	< 6.00	pIC50 (recombinant human MMP-3): < 6.00; pIC50 (recombinant human MMP-8): < 6.00
O=C1NC(=O)C(c2sccc2Sc2ccc(OCc3ccc(CO)cc3)cc2)N1 (stereo not shown) [TC6]	–	> 8.00	–	–	–	–
O=C1NC(=O)C(c2sccc2Sc2ccc(OCc3cccc(O)c3)cc2)N1 (stereo not shown) [TC7]	–	> 8.00	–	–	–	–
Cc1cc(COc2ccc(Sc3ccsc3C3NC(=O)NC3=O)cc2)ccn1 (stereo not shown) [TC8]	> 8.00	> 8.00	–	–	–	pIC50 (recombinant human MMP-7): < 6.00
